Measurements reported in ChEMBL document CHEMBL1201862, “PubChem BioAssay data set” (2004).
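The compound was tested at five concentrations on cells cultured in 96-well plates, with a 48-hour exposure period. GI50 marks 50% less growth.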 Active and inactive are the calls of the source. No stated cut-off is given here; in the data, active = GI50 up to about 1.1 µM and inactive = higher.

What was measured:
Test in all cases: NCI anticancer screen, dose series, 48 h
OVCAR-8 = tested on: OVCAR-8
PC-3 = tested on: PC-3
SK-MEL-2 = tested on: SK-MEL-2
HL-60 = tested on: HL-60
SF-268 = tested on: SF-268
HCC 2998 = tested on: HCC 2998
SNB-75 = tested on: SNB-75
RXF 393 = tested on: RXF 393
Hs-578T = tested on: Hs-578T
LOX IMVI = tested on: LOX IMVI
HCT-116 = tested on: HCT-116
M14 = tested on: M14
SK-MEL-28 = tested on: SK-MEL-28
CCRF-CEM = tested on: CCRF-CEM
SK-OV-3 = tested on: SK-OV-3
NCI/ADR-RES = tested on: NCI/ADR-RES
RPMI-8226 = tested on: RPMI-8226
Malme-3M = tested on: Malme-3M
SN12C = tested on: SN12C
SW-620 = tested on: SW-620
MCF7 = tested on: MCF7
SNB-19 = tested on: SNB-19
EKVX = tested on: EKVX
CAKI-1 = tested on: CAKI-1
HOP-92 = tested on: HOP-92
MDA-N = tested on: MDA-N
NCI-H522 = tested on: NCI-H522
HT-29 = tested on: HT-29
MDA-MB-231 = tested on: MDA-MB-231
BT-549 = tested on: BT-549
UACC-257 = tested on: UACC-257
SK-MEL-5 = tested on: SK-MEL-5
786-0 = tested on: 786-0
HCT-15 = tested on: HCT-15
UACC-62 = tested on: UACC-62
SR = tested on: SR
COLO 205 = tested on: COLO 205
OVCAR-5 = tested on: OVCAR-5
ACHN = tested on: ACHN
TK-10 = tested on: TK-10
A549 = tested on: A549
MOLT-4 = tested on: MOLT-4
MDA-MB-435 = tested on: MDA-MB-435
KM12 = tested on: KM12
IGROV-1 = tested on: IGROV-1
UO-31 = tested on: UO-31
NCI-H226 = tested on: NCI-H226
T47D = tested on: T47D
NCI-H460 = tested on: NCI-H460
NCI-H23 = tested on: NCI-H23
OVCAR-4 = tested on: OVCAR-4
HOP-62 = tested on: HOP-62
OVCAR-3 = tested on: OVCAR-3
SF-295 = tested on: SF-295
DU-145 = tested on: DU-145
U-251 = tested on: U-251
A498 = tested on: A498
K562 = tested on: K562

For `O=C(O)[C@@H]1NC[C@H]2C(Br)=NO[C@H]21`, the GI50 (OVCAR-8) was > 100 µM (inactive), the GI50 (PC-3) was > 100 µM (inactive) and the GI50 (SK-MEL-2) was > 100 µM (inactive). For the same compound, the GI50 (HL-60) was > 100 µM (inactive), the GI50 (SF-268) was > 100 µM (inactive) and the GI50 (HCC 2998) was > 100 µM (inactive). The GI50 (SNB-75) was > 100 µM (inactive), the GI50 (RXF 393) was > 100 µM (inactive) and the GI50 (Hs-578T) was > 100 µM (inactive). The GI50 (LOX IMVI) was > 100 µM (inactive), the GI50 (HCT-116) was > 100 µM (inactive) and the GI50 (M14) was > 100 µM (inactive). The GI50 (SK-MEL-28) was > 100 µM (inactive), the GI50 (CCRF-CEM) was > 100 µM (inactive) and the GI50 (SK-OV-3) was > 100 µM (inactive). For the same compound, the GI50 (NCI/ADR-RES) was > 100 µM (inactive), the GI50 (RPMI-8226) was > 100 µM (inactive) and the GI50 (Malme-3M) was > 100 µM (inactive). The GI50 (SN12C) was > 100 µM (inactive), the GI50 (SW-620) was > 100 µM (inactive) and the GI50 (MCF7) was 86.9 µM (inactive). For the same compound, the GI50 (SNB-19) was > 100 µM (inactive), the GI50 (EKVX) was > 100 µM (inactive) and the GI50 (CAKI-1) was > 100 µM (inactive). The GI50 (HOP-92) was > 100 µM (inactive), the GI50 (MDA-N) was > 100 µM (inactive) and the GI50 (NCI-H522) was > 100 µM (inactive). The GI50 (HT-29) was > 100 µM (inactive), the GI50 (MDA-MB-231) was > 100 µM (inactive) and the GI50 (BT-549) was > 100 µM (inactive). The GI50 (UACC-257) was > 100 µM (inactive), the GI50 (SK-MEL-5) was 69.5 µM (inactive) and the GI50 (786-0) was > 100 µM (inactive). For the same compound, the GI50 (HCT-15) was over 100 µM, the GI50 (UACC-62) was > 100 µM (inactive) and the GI50 (SR) was 23.4 µM (inactive). The GI50 (COLO 205) was > 100 µM (inactive), the GI50 (OVCAR-5) was > 100 µM (inactive) and the GI50 (ACHN) was > 100 µM (inactive). For the same compound, the GI50 (TK-10) was 94.8 µM (inactive), the GI50 (A549) was > 100 µM (inactive) and the GI50 (MOLT-4) was 29.3 µM (inactive). The GI50 (MDA-MB-435) was > 100 µM (inactive), the GI50 (KM12) was > 100 µM (inactive) and the GI50 (IGROV-1) was > 100 µM (inactive). The GI50 (UO-31) was > 100 µM (inactive), the GI50 (NCI-H226) was > 100 µM (inactive) and the GI50 (T47D) was > 100 µM (inactive). The GI50 (NCI-H460) was 78.2 µM (inactive), the GI50 (NCI-H23) was > 100 µM (inactive) and the GI50 (OVCAR-4) was > 100 µM (inactive). For the same compound, the GI50 (HOP-62) was > 100 µM (inactive), the GI50 (OVCAR-3) was > 100 µM (inactive) and the GI50 (SF-295) was > 100 µM (inactive). For the same compound, the GI50 (DU-145) was > 100 µM (inactive), the GI50 (U-251) was > 100 µM (inactive) and the GI50 (A498) was > 100 µM (inactive).
With `Cc1cc(C)c(C2=NOC(c3ccccc3)(c3cc(=O)n(-c4ccccc4)s3)O2)c(C)c1` (centres undefined) the GI50 (OVCAR-8) was 18.7 µM (inactive), the GI50 (PC-3) was 30.9 µM (inactive) and the GI50 (SK-MEL-2) was 28 µM (inactive). The GI50 (HL-60) was 22.1 µM (inactive), the GI50 (SF-268) was 44.2 µM (inactive) and the GI50 (HCC 2998) was 32.5 µM (inactive). For the same compound, the GI50 (SNB-75) was 26.5 µM (inactive), the GI50 (RXF 393) was 17.3 µM (inactive) and the GI50 (Hs-578T) was 52.6 µM (inactive). For the same compound, the GI50 (LOX IMVI) was 15.8 µM (inactive), the GI50 (HCT-116) was > 100 µM (inactive) and the GI50 (M14) was 27 µM (inactive). The GI50 (SK-MEL-28) was 32 µM (inactive), the GI50 (CCRF-CEM) was 23.8 µM (inactive) and the GI50 (SK-OV-3) was > 100 µM (inactive). The GI50 (NCI/ADR-RES) was 23.3 µM (inactive), the GI50 (RPMI-8226) was 37 µM (inactive) and the GI50 (Malme-3M) was 18.8 µM (inactive). For the same compound, the GI50 (SN12C) was 33 µM (inactive), the GI50 (SW-620) was 26.4 µM (inactive) and the GI50 (K562) was > 100 µM (inactive). The GI50 (MCF7) was 18.6 µM (inactive), the GI50 (SNB-19) was 50.6 µM (inactive) and the GI50 (EKVX) was 21.9 µM (inactive). The GI50 (CAKI-1) was 17.2 µM (inactive), the GI50 (HOP-92) was 23.2 µM (inactive) and the GI50 (MDA-N) was 38.8 µM (inactive). The GI50 (NCI-H522) was 17.5 µM (inactive), the GI50 (HT-29) was 18.8 µM (inactive) and the GI50 (MDA-MB-231) was 30.8 µM (inactive). The GI50 (BT-549) was 24.8 µM (inactive), the GI50 (UACC-257) was 38.9 µM (inactive) and the GI50 (SK-MEL-5) was 74 µM (inactive). The GI50 (786-0) was 19 µM (inactive), the GI50 (HCT-15) was 19.3 µM and the GI50 (UACC-62) was 23.2 µM (inactive). For the same compound, the GI50 (SR) was 89.7 µM (inactive), the GI50 (COLO 205) was 23.6 µM (inactive) and the GI50 (OVCAR-5) was 18 µM (inactive). The GI50 (ACHN) was 24.2 µM (inactive), the GI50 (TK-10) was 25.1 µM (inactive) and the GI50 (A549) was 29.5 µM (inactive). The GI50 (MOLT-4) was 41.9 µM (inactive), the GI50 (MDA-MB-435) was 48.3 µM (inactive) and the GI50 (KM12) was 37 µM (inactive). The GI50 (IGROV-1) was 37.1 µM (inactive), the GI50 (UO-31) was 20.8 µM (inactive) and the GI50 (NCI-H226) was 31.5 µM (inactive). The GI50 (T47D) was 17.3 µM (inactive), the GI50 (NCI-H460) was 43.1 µM (inactive) and the GI50 (NCI-H23) was 20.6 µM (inactive). The GI50 (OVCAR-4) was 53.1 µM (inactive), the GI50 (HOP-62) was 33.2 µM (inactive) and the GI50 (SF-295) was > 100 µM (inactive). The GI50 (DU-145) was 32.1 µM (inactive), the GI50 (U-251) was 24.7 µM (inactive) and the GI50 (A498) was > 100 µM (inactive).
